Test system: 454973-116-R2-J3-PDC spheroids, percent test/control viability
Assay: Anticancer human tumor 454973-116-R2-J3-PDC patient-derived pancreatic carcinoma cell line growth inhibition [CLK]
Settings: spheroids with HUVEC and MSC; for IC50: curve of first compound; for viability, T/C: stronger effect = lower value
Method in brief: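 Patient-derived tumor cells grown as complex spheroids with HUVEC endothelial cells and mesenchymal stem cells, treated with drug combinations. Concentrations descend in half-log steps from near clinical Cmax, or from 10 microM if Cmax unknown.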
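Also: spheroids exposed to compounds for 7 days before readout.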

C=CC(=O)Nc1cc(Nc2nccc(-c3cn(C)c4ccccc34)n2)c(OC)cc1N(C)CCN(C)C + CN1CCN(c2cc(C(=O)Nc3cc4cc(-c5cnn(C)c5)ccc4cn3)ccn2)CC1
IC50 (second compound 0.0316 µM): > 300 nM | IC50 (second compound 0.1 µM): > 300 nM | IC50 (second compound 0.316 µM): < 0.949 nM | IC50 (second compound 1 µM): < 0.949 nM | IC50 (second compound 3.16 µM): < 0.949 nM | IC50 (second compound 10 µM): < 0.949 nM | viability, T/C (second compound 0.0316 µM, first compound 0.000949 µM): 95.6% | viability, T/C (second compound 0.0316 µM, first compound 0.003 µM): 107% | viability, T/C (second compound 0.0316 µM, first compound 0.00949 µM): 96.8% | viability, T/C (second compound 0.0316 µM, first compound 0.03 µM): 104% | viability, T/C (second compound 0.0316 µM, first compound 0.0949 µM): 102% | viability, T/C (second compound 0.0316 µM, first compound 0.3 µM): 98.3% | viability, T/C (second compound 0.1 µM, first compound 0.000949 µM): 72.8% | viability, T/C (second compound 0.1 µM, first compound 0.003 µM): 76.6% | viability, T/C (second compound 0.1 µM, first compound 0.00949 µM): 77.1% | viability, T/C (second compound 0.1 µM, first compound 0.03 µM): 77.1% | viability, T/C (second compound 0.1 µM, first compound 0.0949 µM): 79% | viability, T/C (second compound 0.1 µM, first compound 0.3 µM): 72% | viability, T/C (second compound 0.316 µM, first compound 0.000949 µM): 1.85% | viability, T/C (second compound 0.316 µM, first compound 0.003 µM): 4.04% | viability, T/C (second compound 0.316 µM, first compound 0.00949 µM): 1.97% | viability, T/C (second compound 0.316 µM, first compound 0.03 µM): 3.67% | viability, T/C (second compound 0.316 µM, first compound 0.0949 µM): 1.83% | viability, T/C (second compound 0.316 µM, first compound 0.3 µM): 1.5% | viability, T/C (second compound 1 µM, first compound 0.000949 µM): 0.13% | viability, T/C (second compound 1 µM, first compound 0.003 µM): 0.14% | viability, T/C (second compound 1 µM, first compound 0.00949 µM): 0.14% | viability, T/C (second compound 1 µM, first compound 0.03 µM): 0.1% | viability, T/C (second compound 1 µM, first compound 0.0949 µM): 0.12% | viability, T/C (second compound 1 µM, first compound 0.3 µM): 0.12% | viability, T/C (second compound 3.16 µM, first compound 0.000949 µM): 0.15% | viability, T/C (second compound 3.16 µM, first compound 0.003 µM): 0.21% | viability, T/C (second compound 3.16 µM, first compound 0.00949 µM): 0.2% | viability, T/C (second compound 3.16 µM, first compound 0.03 µM): 0.2% | viability, T/C (second compound 3.16 µM, first compound 0.0949 µM): 1.74% | viability, T/C (second compound 3.16 µM, first compound 0.3 µM): 0.35% | viability, T/C (second compound 10 µM, first compound 0.000949 µM): 0.31% | viability, T/C (second compound 10 µM, first compound 0.003 µM): 0.26% | viability, T/C (second compound 10 µM, first compound 0.00949 µM): 0.21% | viability, T/C (second compound 10 µM, first compound 0.03 µM): 0.29% | viability, T/C (second compound 10 µM, first compound 0.0949 µM): 2.12% | viability, T/C (second compound 10 µM, first compound 0.3 µM): 2.07%

Nc1ccccc1NC(=O)c1ccc(CNC(=O)OCc2cccnc2)cc1 + CN1CCN(c2cc(C(=O)Nc3cc4cc(-c5cnn(C)c5)ccc4cn3)ccn2)CC1
IC50 (second compound 0.0316 µM): 2100 nM | IC50 (second compound 0.1 µM): 1140 nM | IC50 (second compound 0.316 µM): < 31.6 nM | IC50 (second compound 1 µM): < 31.6 nM | IC50 (second compound 3.16 µM): < 31.6 nM | IC50 (second compound 10 µM): < 31.6 nM | viability, T/C (second compound 0.0316 µM, first compound 0.0316 µM): 95.7% | viability, T/C (second compound 0.0316 µM, first compound 0.1 µM): 92.8% | viability, T/C (second compound 0.0316 µM, first compound 0.316 µM): 89.9% | viability, T/C (second compound 0.0316 µM, first compound 1 µM): 74.2% | viability, T/C (second compound 0.0316 µM, first compound 3.16 µM): 36.7% | viability, T/C (second compound 0.0316 µM, first compound 10 µM): 10.9% | viability, T/C (second compound 0.1 µM, first compound 0.0316 µM): 73.5% | viability, T/C (second compound 0.1 µM, first compound 0.1 µM): 76.7% | viability, T/C (second compound 0.1 µM, first compound 0.316 µM): 60.5% | viability, T/C (second compound 0.1 µM, first compound 1 µM): 57.6% | viability, T/C (second compound 0.1 µM, first compound 3.16 µM): 24.1% | viability, T/C (second compound 0.1 µM, first compound 10 µM): 2.49% | viability, T/C (second compound 0.316 µM, first compound 0.0316 µM): 1.31% | viability, T/C (second compound 0.316 µM, first compound 0.1 µM): 1.59% | viability, T/C (second compound 0.316 µM, first compound 0.316 µM): 0.45% | viability, T/C (second compound 0.316 µM, first compound 1 µM): 2.31% | viability, T/C (second compound 0.316 µM, first compound 3.16 µM): 0.06% | viability, T/C (second compound 0.316 µM, first compound 10 µM): 0.18% | viability, T/C (second compound 1 µM, first compound 0.0316 µM): 0.11% | viability, T/C (second compound 1 µM, first compound 0.1 µM): 0.84% | viability, T/C (second compound 1 µM, first compound 0.316 µM): 0.11% | viability, T/C (second compound 1 µM, first compound 1 µM): 0.08% | viability, T/C (second compound 1 µM, first compound 3.16 µM): 0.05% | viability, T/C (second compound 1 µM, first compound 10 µM): 0.07% | viability, T/C (second compound 3.16 µM, first compound 0.0316 µM): 0.13% | viability, T/C (second compound 3.16 µM, first compound 0.1 µM): 0.33% | viability, T/C (second compound 3.16 µM, first compound 0.316 µM): 0.2% | viability, T/C (second compound 3.16 µM, first compound 1 µM): 0.11% | viability, T/C (second compound 3.16 µM, first compound 3.16 µM): 0.1% | viability, T/C (second compound 3.16 µM, first compound 10 µM): 0.77% | viability, T/C (second compound 10 µM, first compound 0.0316 µM): 0.13% | viability, T/C (second compound 10 µM, first compound 0.1 µM): 0.68% | viability, T/C (second compound 10 µM, first compound 0.316 µM): 0.22% | viability, T/C (second compound 10 µM, first compound 1 µM): 0.29% | viability, T/C (second compound 10 µM, first compound 3.16 µM): 0.22% | viability, T/C (second compound 10 µM, first compound 10 µM): 0.18%

Source: PubChem BioAssay AID2060618 (Molecular Pharmacology Branch, DTP, NCI, 2025)
